Measurements taken from the supplement of paper PMC11208160.

Assay: recombinant UMI read abundance after kanamycin selection (control-corrected) (log10(CPM+1)); higher = more efficient recombination; extreme values may be limits of the assay; sequences stand for … in AGTGCAGAGAAAATCGGCCAGTTTTCTCTGCCTGCAGTCCGCATGCCGTGGGACCCCTTGGGTTCTAACCTGTTGCCTAGATTTATGCAGCGGACTGCCTTTCTCCCAAAGTGATAAACCGG…AGGTTGGTTTCACT; site = the 11-nt donor
In short: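 Counts of recombinant UMIs were reported as log10(CPM+1). Before that, they were converted to CPM, averaged over replicates and scaled using control-derived factors. They came from PCR across the donor–target junction after Escherichia coli carrying the pair library and target plasmid was plated on IPTG (0.07 mM) plus kanamycin, or unselected, in two replicates each.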
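Note: IS621 bridge recombinase in Escherichia coli cells against a fixed T5 target plasmid.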

First: AACTATACATGGACCGGTTTTCCCGGTAATCCGTATTTGAC (site ACCTATACTGT)
Second: CTGTGATCATGGACCGGTTTTCCCGGTAATCCGTATTTGAA (site CTGTGATCTTT)
The “recombinant UMI read abundance (log10)” value of the first is lower: 0.367 for the first, 2.65 for the second.

“CCCTTCTCATGGACCGGTTTTCCCGGTAATCCGTATTTGAG (site CCCTTCTCTCG)” and “ACCTTGCCATGGACCGGTTTTCCCGGTAATCCGTATTTGAA (site ACCTTGCCTTT)” are within 0.2 log units of each other in “recombinant UMI read abundance (log10)” value: 0.01 for the first, 0.00655 for the second.

First: CTGCTGCCATGGACCGGTTTTCCCGGTAATCCGTATTTGGC (site CTGCTGCCTGC)
Second: CTGGAAACATGGACCGGTTTTCCCGGTAATCCGTATTTGTA (site CTGGAAACTTG)
The “recombinant UMI read abundance (log10)” value of the first is lower: 0 for the first, 1.22 for the second.

“CACTTGGCATGGACCGGTTTTCCCGGTAATCCGTATTTGGA (site CACTTTGCTTC)” and “CCAGGTGCATGGACCGGTTTTCCCGGTAATCCGTATTTGAT (site CCAGGTGCTAG)” are within 0.2 log units of each other in “recombinant UMI read abundance (log10)” value: 0.00347 for the first, 0 for the second.

Compared with “CACGCCTCATGGACCGGTTTTCCCGGTAATCCGTATTTGCC (site CACACCTCTGG)”, “CGTTCATCATGGACCGGTTTTCCCGGTAATCCGTATTTGCT (site CGCTCATCTAG)” is lower in “recombinant UMI read abundance (log10)” value: 2.73 for the first, 1.41 for the second.

First: TGTAGGTCATGGACCGGTTTTCCCGGTAATCCGTATTTGGT (site TGTAGGTCTAC)
Second: CCGTTTACATGGACCGGTTTTCCCGGTAATCCGTATTTGTT (site CCGTTTACTAG)
The “recombinant UMI read abundance (log10)” value of the first is higher: 0.355 for the first, 0 for the second.

Compared with “CTCGATACATGGACCGGTTTTCCCGGTAATCCGTATTTGCT (site CTCGATACTAG)”, “GCGAAAACATGGACCGGTTTTCCCGGTAATCCGTATTTGCT (site GCGTAAACTAG)” is lower in “recombinant UMI read abundance (log10)” value: 2.37 for the first, 1.73 for the second.

“GGCCACCCATGGACCGGTTTTCCCGGTAATCCGTATTTGTT (site GGCCACCCTAA)” and “TACCTGACATGGACCGGTTTTCCCGGTAATCCGTATTTGCT (site TACTTGACTAG)” are within 0.2 log units of each other in “recombinant UMI read abundance (log10)” value: 0.0168 for the first, 0 for the second.

Going from “CGGGAACCATGGACCGGTTTTCCCGGTAATCCGTATTTGCT (site CGGGAACCTAG)” to “AATGTATCATGGACCGGTTTTCCCGGTAATCCGTATTTGCT (site AATGTAACTAG)”, the “recombinant UMI read abundance (log10)” value rises from 0 to 0.796.

“TAGCCTACATGGACCGGTTTTCCCGGTAATCCGTATTTGGT (site TAGCCTCCTAC)” and “GGCCACCCATGGACCGGTTTTCCCGGTAATCCGTATTTGTC (site GGCCACCCTGA)” are within 0.2 log units of each other in “recombinant UMI read abundance (log10)” value: 0.0181 for the first, 0 for the second.

First: CCGATATCATGGACCGGTTTTCCCGGTAATCCGTATTTGTC (site CCGATATCTGA)
Second: ACCTCAGCATGGACCGGTTTTCCCGGTAATCCGTATTTGGG (site ACCTCAGCTCC)
The “recombinant UMI read abundance (log10)” value of the first is higher: 1.21 for the first, 0.00849 for the second.

“AGGAAGACATGGACCGGTTTTCCCGGTAATCCGTATTTGCA (site AGGCATACTTG)” and “ATCTATCCATGGACCGGTTTTCCCGGTAATCCGTATTTGAC (site ATCTATGCTGT)” are the same in “recombinant UMI read abundance (log10)” value: 0 for the first, 0 for the second.

First: GTAGGAACATGGACCGGTTTTCCCGGTAATCCGTATTTGAC (site GTAGGTACTGT)
Second: ACGGCTACATGGACCGGTTTTCCCGGTAATCCGTATTTGAC (site ACGGCTACTGT)
The “recombinant UMI read abundance (log10)” value of the first is lower: 1.56 for the first, 2.45 for the second.

Compared with “TACCTGACATGGACCGGTTTTCCCGGTAATCCGTATTTGCT (site TACCTGACTAG)”, “CGGACATCATGGACCGGTTTTCCCGGTAATCCGTATTTGCC (site CGGACATCTTG)” is lower in “recombinant UMI read abundance (log10)” value: 0.461 for the first, 0 for the second.

First: AGGAAGACATGGACCGGTTTTCCCGGTAATCCGTATTTGCA (site AGGAGGACTGG)
Second: TCAGGGACATGGACCGGTTTTCCCGGTAATCCGTATTTGCG (site TCAGAGACTCG)
The “recombinant UMI read abundance (log10)” value of the first is lower: 0 for the first, 0.74 for the second.

Going from “TGTTCACCATGGACCGGTTTTCCCGGTAATCCGTATTTGTA (site TGTTCGCCTTA)” to “AGGAAGACATGGACCGGTTTTCCCGGTAATCCGTATTTGCA (site AGTAGGACTTG)”, the “recombinant UMI read abundance (log10)” value rises from 0.00766 to 0.855.

First: CGCCCATCATGGACCGGTTTTCCCGGTAATCCGTATTTGCT (site CGCCCATCTAG)
Second: TAAGAATCATGGACCGGTTTTCCCGGTAATCCGTATTTGCG (site TAAGAATCTCG)
The “recombinant UMI read abundance (log10)” value of the first is lower: 2.54 for the first, 2.9 for the second.

First: TGGAAGTCATGGACCGGTTTTCCCGGTAATCCGTATTTGCA (site AGGAAGACTTG)
Second: ATTCAGACATGGACCGGTTTTCCCGGTAATCCGTATTTGGT (site ATTCAGACTAC)
The “recombinant UMI read abundance (log10)” value of the first is lower: 0.00562 for the first, 0.566 for the second.

Compared with “ACCTAGACATGGACCGGTTTTCCCGGTAATCCGTATTTGGT (site ACCTAGACTAC)”, “CAATTGGCATGGACCGGTTTTCCCGGTAATCCGTATTTGGA (site CAATTGGCTTC)” is higher in “recombinant UMI read abundance (log10)” value: 0.0673 for the first, 0.902 for the second.

“GCCAATCCATGGACCGGTTTTCCCGGTAATCCGTATTTGAA (site GACAATCCTTT)” and “TACTCCTCATGGACCGGTTTTCCCGGTAATCCGTATTTGGG (site TACTCCTCTCC)” are within 0.2 log units of each other in “recombinant UMI read abundance (log10)” value: 0.01 for the first, 0.0269 for the second.

First: AGGAAGACATGGACCGGTTTTCCCGGTAATCCGTATTTGCA (site AGGAAGCCTTG)
Second: AGATGTTCATGGACCGGTTTTCCCGGTAATCCGTATTTGTT (site AGATGTTCTAA)
The “recombinant UMI read abundance (log10)” value of the first is lower: 0 for the first, 1.45 for the second.

“AAGCACTCATGGACCGGTTTTCCCGGTAATCCGTATTTGGG (site AAGCACCCTCC)” and “GGGGCACCATGGACCGGTTTTCCCGGTAATCCGTATTTGAA (site GGGGCACCTTT)” are within 0.2 log units of each other in “recombinant UMI read abundance (log10)” value: 0.00615 for the first, 0.0108 for the second.

Going from “AATGTATCATGGACCGGTTTTCCCGGTAATCCGTATTTGCT (site AATGTATCTAG)” to “TCACGCACATGGACCGGTTTTCCCGGTAATCCGTATTTGCT (site TCACGCACTAG)”, the “recombinant UMI read abundance (log10)” value falls from 2.56 to 1.97.

Going from “CAGTCGACATGGACCGGTTTTCCCGGTAATCCGTATTTGGA (site CAGTCGACTTC)” to “CGGACTTCATGGACCGGTTTTCCCGGTAATCCGTATTTGCT (site CGGACTTCTAG)”, the “recombinant UMI read abundance (log10)” value rises from 0.0121 to 2.17.

Going from “GCTACTGCATGGACCGGTTTTCCCGGTAATCCGTATTTGGC (site GCTACTGCTGG)” to “TAGTGTTCATGGACCGGTTTTCCCGGTAATCCGTATTTGCA (site TAGTGTTCTTG)”, the “recombinant UMI read abundance (log10)” value rises from 0 to 2.49.

“CGATCGACATGGACCGGTTTTCCCGGTAATCCGTATTTGTT (site CGGTCGACTAA)” and “AGGAAGACATGGACCGGTTTTCCCGGTAATCCGTATTTGCA (site AGGAAAACTCG)” are within 0.2 log units of each other in “recombinant UMI read abundance (log10)” value: 0.012 for the first, 0 for the second.

“CGATCGACATGGACCGGTTTTCCCGGTAATCCGTATTTGTT (site CGATGGACTAA)” and “GTGCATACATGGACCGGTTTTCCCGGTAATCCGTATTTGGT (site GTGCATCCTAC)” are within 0.2 log units of each other in “recombinant UMI read abundance (log10)” value: 0.0255 for the first, 0.00833 for the second.

First: AGCACTACATGGACCGGTTTTCCCGGTAATCCGTATTTGAC (site AGTACTACTGT)
Second: ACGCATCCATGGACCGGTTTTCCCGGTAATCCGTATTTGAC (site ACACATCCTGT)
The “recombinant UMI read abundance (log10)” value of the first is lower: 0.741 for the first, 1.31 for the second.

In the case of “CCTAAACCATGGACCGGTTTTCCCGGTAATCCGTATTTGAT (site CCTAAATCTAT)”, the “recombinant UMI read abundance (log10)” value was 0.
